Columns and labels:
Assay in all cases: in vitro susceptibility, MIC by mini broth dilution
Assay type in all cases: cell-based
[1] = test system: Staphylococcus aureus CVCC26003; conditions: strain CVCC26003
Outline: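 MICs were determined by mini broth dilution under NCCLS standards in CAMHB, using revived S. aureus CVCC26003 subcultured 20 h at 35° C. Compounds were two-fold serially diluted in DMSO across 11 wells, with duplicate rows. Bacterial suspension was diluted 1:200 in medium before inoculation.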

[2] = test system: Actinobacillus pleuropneumoniae CVCC262; conditions: strain CVCC262
Outline: (§1)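 MICs determined by mini broth dilution per NCCLS (now CLSI) standards. Strains revived from −20° C, subcultured twice on solid medium at 35° C for 20 h; compounds two-fold serially diluted in DMSO over 11 gradients, duplicate rows, bacterial suspension diluted 1:200 in liquid medium.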

Haemophilus parasuis = test system: Haemophilus parasuis
Outline: as §1

[3] = test system: Pasteurella multocida CVCC399; conditions: strain CVCC399
Outline: as §1

[4] = test system: Streptococcus equines CVCC556; conditions: strain CVCC556
Outline: as §1

SMILES	MIC values, Staphylococcus aureus CVCC26003 [1]	MIC values, Actinobacillus pleuropneumoniae CVCC262 [2] [ug/mi]	MIC values, Haemophilus parasuis (Haemophilus parasuis)	MIC values, Pasteurella multocida CVCC399 [3]	MIC values, Streptococcus equines CVCC556 [4]
CC[C@H]1OC(=O)[C@H](C)[C@@H](O[C@H]2C[C@@](C)(OC)[C@](O)(CNCc3ccco3)[C@H](C)O2)[C@H](C)[C@@H](O[C@@H]2O[C@H](C)C[C@H](N(C)C)[C@H]2O)[C@](C)(O)C[C@@H](C)NC[C@H](C)[C@@H](O)[C@]1(C)O [syzx-71, (2R,3S,4R,5S,8R,10R,11R,12S,13S,14R)-13-[(2,6-dideoxy-3-C-methyl-3-O-methyl-4-C-[(2-furfuryl-amino)-methyl]-α-L-ribopyranosyl)oxy]-2-ethyl-3,4,10-trihydroxy-3,5,8,10,12,14-hexamethyl-11-[[3,4,6-trideoxy-3-(dimethylamino)-β-D-xylo-hexopyranosy]oxy]-1-oxa-7-azacyclopentadecan-15-one]	8 ug/mi	16	8 ug/mi	≦0.25 ug/mi	≦0.25 ug/mi
CC[C@H]1OC(=O)[C@H](C)[C@@H](O[C@H]2C[C@@](C)(OC)[C@](O)(CNCc3cccc(N)c3)[C@H](C)O2)[C@H](C)[C@@H](O[C@@H]2O[C@H](C)C[C@H](N(C)C)[C@H]2O)[C@](C)(O)C[C@@H](C)NC[C@H](C)[C@@H](O)[C@]1(C)O [syzx-72, (2R,3S,4R,5S,8R,10R,11R,12S,13S,14R)-13-[(2,6-dideoxy-3-C-methyl-3-O-methyl-4-C-[(3-aminobenzyl-amino)-methyl]-α-L-ribopyranosyl)oxy]-2-ethyl-3,4,10-trihydroxy-3,5,8,10,12,14-hexamethyl-11-[[3,4,6-trideoxy-3-(dimethylamino)-β-D-xylo-hexopyranosy]oxy]-1-oxa-7-azacyclopentadecan-15-one]	1 ug/mi	16	0.25 ug/mi	1 ug/mi	≦0.25 ug/mi
CC[C@H]1OC(=O)[C@H](C)[C@@H](O[C@H]2C[C@@](C)(OC)[C@](O)(C=NNc3ccccc3)[C@H](C)O2)[C@H](C)[C@@H](O[C@@H]2O[C@H](C)C[C@H](N(C)C)[C@H]2O)[C@](C)(O)C[C@@H](C)NC[C@H](C)[C@@H](O)[C@]1(C)O [syzx-73, (2R,3S,4R,5S,8R,10R,11R,12S,13S,14R)-13-[(2,6-dideoxy-3-C-methyl-3-O-methyl-4-C-[(phenylhydrazono)-methyl]-α-L-ribopyranosyl)oxy]-2-ethyl-3,4,10-trihydroxy-3,5,8,10,12,14-hexamethyl-11-[[3,4,6-trideoxy-3-(dimethylamino)-β-D-xylo-hexopyranosy]oxy]-1-oxa-7-azacyclopentadecan-15-one]	1 ug/mi	1	1 ug/mi	2 ug/mi	0.5 ug/mi
CC[C@H]1OC(=O)[C@H](C)[C@@H](O[C@H]2C[C@@](C)(OC)[C@](O)(CNCCc3c[nH]c4ccccc34)[C@H](C)O2)[C@H](C)[C@@H](O[C@@H]2O[C@H](C)C[C@H](N(C)C)[C@H]2O)[C@](C)(O)C[C@@H](C)NC[C@H](C)[C@@H](O)[C@]1(C)O [syzx-74, (2R,3S,4R,5S,8R,10R,11R,12S,13S,14R)-13-[(2,6-dideoxy-3-C-methyl-3-O-methyl-4-C-{[2-(1H-indol-3-yl)-ethylamino]-methyl}-α-L-ribopyranosyl)oxy]-2-ethyl-3,4,10-trihydroxy-3,5,8,10,12,14-hexamethyl-11-[[3,4,6-trideoxy-3-(dimethylamino)-β-D-xylo-hexopyranosy]oxy]-1-oxa-7-azacyclopentadecan-15-one]	1 ug/mi	1	2 ug/mi	1 ug/mi	0.5 ug/mi
CC[C@H]1OC(=O)[C@H](C)[C@@H](O[C@H]2C[C@@](C)(OC)[C@](O)(CNCCCCl)[C@H](C)O2)[C@H](C)[C@@H](O[C@@H]2O[C@H](C)C[C@H](N(C)C)[C@H]2O)[C@](C)(O)C[C@@H](C)NC[C@H](C)[C@@H](O)[C@]1(C)O [syzx-75, (2R,3S,4R,5S,8R,10R,11R,12S,13S,14R)-13-[(2,6-dideoxy-3-C-methyl-3-O-methyl-4-C-[(3-chloropropyl-amino)-methyl]-α-L-ribopyranosyl)oxy]-2-ethyl-3,4,10-trihydroxy-3,5,8,10,12,14-hexamethyl-11-[[3,4,6-trideoxy-3-(dimethylamino)-β-D-xylo-hexopyranosy]oxy]-1-oxa-7-azacyclopentadecan-15-one]	4 ug/mi	64	4 ug/mi	8 ug/mi	4 ug/mi
CC[C@H]1OC(=O)[C@H](C)[C@@H](O[C@H]2C[C@@](C)(OC)[C@](O)(CNc3cc(OC)cc(OC)c3)[C@H](C)O2)[C@H](C)[C@@H](O[C@@H]2O[C@H](C)C[C@H](N(C)C)[C@H]2O)[C@](C)(O)C[C@@H](C)NC[C@H](C)[C@@H](O)[C@]1(C)O [syzx-76, (2R,3S,4R,5S,8R,10R,11R,12S,13S,14R)-13-[(2,6-dideoxy-3-C-methyl-3-O-methyl-4-C-[(3,5-dimethoxyphenyl-amino)-methyl]-α-L-ribopyranosyl)oxy]-2-ethyl-3,4,10-trihydroxy-3,5,8,10,12,14-hexamethyl-11-[[3,4,6-trideoxy-3-(dimethylamino)-β-D-xylo-hexopyranosy]oxy]-1-oxa-7-azacyclopentadecan-15-one]	2 ug/mi	64	1 ug/mi	4 ug/mi	2 ug/mi
CCC1OC(=O)C(C)C(OC2CC(C)(OC)C(O)(CNCc3ccc(C)o3)C(C)O2)C(C)C(OC2OC(C)CC(N(C)C)C2O)C(C)(O)CC(C)NCC(C)C(O)C1(C)O [syzx-78, (2R,3S,4R,5S,8R,10R,11R,12S,13S,14R)-13-[(2,6-dideoxy-3-C-methyl-3-O-methyl-4-C-[(5-methylfurfurylamino)-methyl]-α-L-ribopyranosyl)oxy]-2-ethyl-3,4,10-trihydroxy-3,5,8,10,12,14-hexamethyl-11-[[3,4,6-trideoxy-3-(dimethylamino)-β-D-xylo-hexopyranosy]oxy]-1-oxa-7-azacyclopentadecan-15-one]	0.25 ug/mi	2	0.25 ug/mi	0.5 ug/mi	0.25 ug/mi
CC[C@H]1OC(=O)[C@H](C)[C@@H](O[C@H]2C[C@@](C)(OC)[C@](O)(C=NNc3ccc(F)cc3)[C@H](C)O2)[C@H](C)[C@@H](O[C@@H]2O[C@H](C)C[C@H](N(C)C)[C@H]2O)[C@](C)(O)C[C@@H](C)NC[C@H](C)[C@@H](O)[C@]1(C)O [syzx-81, (2R,3S,4R,5S,8R,10R,11R,12S,13S,14R)-13-[(2,6-dideoxy-3-C-methyl-3-O-methyl-4-C-[(4-fluoro-phenylhydrazono)-methyl]-α-L-ribopyranosyl)oxy]-2-ethyl-3,4,10-trihydroxy-3,5,8,10,12,14-hexamethyl-11-[[3,4,6-trideoxy-3-(dimethylamino)-β-D-xylo-hexopyranosy]oxy]-1-oxa-7-azacyclopentadecan-15-one]	≦0.25 ug/mi	2	≦0.25 ug/mi	0.25 ug/mi	≦0.25 ug/mi
CC[C@H]1OC(=O)[C@H](C)[C@@H](O[C@H]2C[C@@](C)(OC)[C@](O)(CNOCc3ccccc3)[C@H](C)O2)[C@H](C)[C@@H](O[C@@H]2O[C@H](C)C[C@H](N(C)C)[C@H]2O)[C@](C)(O)C[C@@H](C)NC[C@H](C)[C@@H](O)[C@]1(C)O [syzx-82, (2R,3S,4R,5S,8R,10R,11R,12S,13S,14R)-13-[(2,6-dideoxy-3-C-methyl-3-O-methyl-4-C-[(benzyloxy-amino)-methyl]-α-L-ribopyranosyl)oxy]-2-ethyl-3,4,10-trihydroxy-3,5,8,10,12,14-hexamethyl-11-[[3,4,6-trideoxy-3-(dimethylamino)-β-D-xylo-hexopyranosy]oxy]-1-oxa-7-azacyclopentadecan-15-one]	0.5 ug/mi	16	≦0.25 ug/mi	1 ug/mi	≦0.25 ug/mi
CC[C@H]1OC(=O)[C@H](C)[C@@H](O[C@H]2C[C@@](C)(OC)[C@](O)(CNc3ccc(OC)cc3)[C@H](C)O2)[C@H](C)[C@@H](O[C@@H]2O[C@H](C)C[C@H](N(C)C)[C@H]2O)[C@](C)(O)C[C@@H](C)NC[C@H](C)[C@@H](O)[C@]1(C)O [syzx-83, (2R,3S,4R,5S,8R,10R,11R,12S,13S,14R)-13-[(2,6-dideoxy-3-C-methyl-3-O-methyl-4-C-[(p-methoxyphenyl-amino)-methyl]-α-L-ribopyranosyl)oxy]-2-ethyl-3,4,10-trihydroxy-3,5,8,10,12,14-hexamethyl-11-[[3,4,6-trideoxy-3-(dimethylamino)-β-D-xylo-hexopyranosy]oxy]-1-oxa-7-azacyclopentadecan-15-one]	0.5 ug/mi	2	0.25 ug/mi	0.25 ug/mi	0.5 ug/mi
